Tests used:
[1] = system: Puccinia recondita f. sp. tritici; experiment: Puccinia recondita f. sp. tritici / wheat / leaf disc curative (brown rust); format: in vivo; settings: foliar, wheat leaf segments cv Kanzler, 200 ppm applied 1 day after inoculation, assessed 6-8 days after application
Experimental: Puccinia recondita f. sp. tritici/Wheat/Leaf Disc Curative (Brown Rust): Wheat leaf segments cv Kanzler were placed on agar in 24-well plates. The leaf segments were inoculated with a spore suspension of the fungus. The plates were stored in darkness at 19° C. and 75% relative humidity. The formulated test compound diluted in water was applied at an application rate of 200 ppm 1 day after inoculation. […]-2.508; 5.561; 2.561; E/E-2.208; 2.513; 2.559; 2.556; 2.555; 2.374; 2.552; 2.537; 2.519; 2.516; 2.514; […].002; 2.512; E/E-2.507

[2] = system: Mycosphaerella arachidis (Cercospora arachidicola); experiment: Mycosphaerella arachidis (Cercospora arachidicola) / liquid culture (early leaf spot); format: cell-based; settings: at ≦200 ppm, liquid culture PDB, inhibition of growth photometrically 4-5 days after application, read-out: control of Mycosphaerella arachidis
Method in brief: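 Cryostored Cercospora arachidicola conidia were mixed into potato dextrose broth and added to test compound in DMSO. Incubation was at 24° C. Growth inhibition was read photometrically 4-5 days after application.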

Gaeumannomyces graminis = Gaeumannomyces graminis / liquid culture (take-all of cereals); format: cell-based; settings: at ≦200 ppm, liquid culture PDB, inhibition of growth photometrically 4-5 days after application, read-out: control of Gaeumannomyces graminis
Method in brief: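 Mycelial fragments of the fungus in potato dextrose broth were added to wells containing compound in DMSO. Plates were incubated at 24° C, and growth inhibition was read photometrically 4-5 days after application.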

[3] = system: Monographella nivalis (Microdochium nivale); experiment: Monographella nivalis (Microdochium nivale) / liquid culture (foot rot cereals); format: cell-based; settings: at ≦200 ppm, liquid culture PDB, inhibition of growth photometrically 4-5 days after application, read-out: control of Monographella nivalis
Method in brief: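 Microdochium nivale conidia in potato dextrose broth added to compound delivered in DMSO, then incubated at 24 °C. Growth inhibition measured photometrically 4-5 days after application.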

[4] = system: Thanatephorus cucumeris (Rhizoctonia solani); experiment: Thanatephorus cucumeris (Rhizoctonia solani) / liquid culture (foot rot, damping-off); format: cell-based; settings: at ≦200 ppm, liquid culture PDB, inhibition of growth photometrically 3-4 days after application, read-out: control of Thanatephorus cucumeris
Experimental: Thanatephorus cucumeris (Rhizoctonia solani)/Liquid Culture (Foot Rot, Damping-Off Mycelia fragments of a newly grown liquid culture of the fungus are directly mixed into nutrient broth (PDB potato dextrose broth). After placing a DMSO solution of the test compounds into a 96-well microtiter, the nutrient broth containing the fungal material was added. The test plates were incubated at 24° C. and the inhibition of growth was determined photometrically 3-4 days after application. […]-2.508 5.561; 2.561; P.57; 2.513; 2.559; 2.558; 2.553; 2.533; 2.530; 2.526; 2.519; 2.517; 2.516; 2.514; 2.512; 2.514

COc1cccc(/C(C)=N/OCC(C)(C)CO/N=C2\CCCc3ccc(C)nc32)n1 [Compound 2.374]
≥ 80%: pest or weed control at 200 ppm [1] | inhibition of growth at up to 200 µg/mL [2] | inhibition of growth at up to 200 µg/mL (Gaeumannomyces graminis) | inhibition of growth at up to 200 µg/mL [3]

C/C(=N\OCC(C)(C)CO/N=C1\CCCc2ccc(C)nc21)c1ccc2ccccc2n1 [Compound 2.512]
≥ 80%: pest or weed control at 200 ppm [1] | inhibition of growth at up to 200 µg/mL [2] | inhibition of growth at up to 200 µg/mL (Gaeumannomyces graminis) | inhibition of growth at up to 200 µg/mL [4] | inhibition of growth at up to 200 µg/mL [3]

C/C(=N\OCC(C)(C)CO/N=C1\CCCc2ccc(C)nc21)c1ccc2c(n1)CCCC2 [Compound 2.513]
≥ 80%: pest or weed control at 200 ppm [1] | inhibition of growth at up to 200 µg/mL [2] | inhibition of growth at up to 200 µg/mL (Gaeumannomyces graminis) | inhibition of growth at up to 200 µg/mL [4] | inhibition of growth at up to 200 µg/mL [3]

C/C(=N\OCCCO/N=C1\CCCc2ccc(C)nc21)c1cccc(-c2ccccc2)n1 [Compound 2.514]
≥ 80%: pest or weed control at 200 ppm [1] | inhibition of growth at up to 200 µg/mL [2] | inhibition of growth at up to 200 µg/mL (Gaeumannomyces graminis) | inhibition of growth at up to 200 µg/mL [4] | inhibition of growth at up to 200 µg/mL [3]

CC/C(=N\OCC(C)(C)CO/N=C1\CCCc2ccc(C)nc21)c1ccccn1 [Compound 2.516]
≥ 80%: pest or weed control at 200 ppm [1] | inhibition of growth at up to 200 µg/mL [2] | inhibition of growth at up to 200 µg/mL (Gaeumannomyces graminis) | inhibition of growth at up to 200 µg/mL [4] | inhibition of growth at up to 200 µg/mL [3]

C/C(=N/OCC(C)(C)CO/N=C1\CCCc2ccc(C)nc21)c1ccccn1 [Compound 2.519]
≥ 80%: pest or weed control at 200 ppm [1] | inhibition of growth at up to 200 µg/mL [2] | inhibition of growth at up to 200 µg/mL (Gaeumannomyces graminis) | inhibition of growth at up to 200 µg/mL [4] | inhibition of growth at up to 200 µg/mL [3]

Cc1ccc2c(n1)/C(=N/OCC(C)(C)CO/N=C/c1cccc(Oc3ccccc3)n1)CCC2 [Compound 2.530]
≥ 80%: inhibition of growth at up to 200 µg/mL [2] | inhibition of growth at up to 200 µg/mL [4] | inhibition of growth at up to 200 µg/mL [3]

Cc1ccc(O)c(/C=N/OCC(C)(C)CO/N=C2\CCCc3ccc(C)nc32)n1 [Compound 2.533]
≥ 80%: inhibition of growth at up to 200 µg/mL [2] | inhibition of growth at up to 200 µg/mL (Gaeumannomyces graminis) | inhibition of growth at up to 200 µg/mL [4] | inhibition of growth at up to 200 µg/mL [3]

C/C(=N\OCC(C)(C)CO/N=C1\CCCc2ccc(Cl)nc21)c1cc(C)cc(C)n1 [Compound 2.555]
≥ 80%: pest or weed control at 200 ppm [1] | inhibition of growth at up to 200 µg/mL [2] | inhibition of growth at up to 200 µg/mL (Gaeumannomyces graminis) | inhibition of growth at up to 200 µg/mL [3]

C/C(=N\OCC(C)(C)CO/N=C1\CCCc2ccc(Oc3ccccc3)nc21)c1cc(C)cc(C)n1 [Compound 2.556]
≥ 80%: pest or weed control at 200 ppm [1] | inhibition of growth at up to 200 µg/mL [2] | inhibition of growth at up to 200 µg/mL (Gaeumannomyces graminis) | inhibition of growth at up to 200 µg/mL [3]

C/C(=N\OCC(C)(C)CO/N=C1\CCCc2ccc(-c3cccc(C)n3)nc21)c1cc(C)cc(C)n1 [Compound 2.559]
≥ 80%: pest or weed control at 200 ppm [1] | inhibition of growth at up to 200 µg/mL [2] | inhibition of growth at up to 200 µg/mL (Gaeumannomyces graminis) | inhibition of growth at up to 200 µg/mL [4] | inhibition of growth at up to 200 µg/mL [3]

C/C(=N\OCC(C)(C)CO/N=C1\CCCc2c1nc1ccccc1c2C)c1cc(C)cc(C)n1 [Compound 2.561]
≥ 80%: pest or weed control at 200 ppm [1] | inhibition of growth at up to 200 µg/mL [2] | inhibition of growth at up to 200 µg/mL (Gaeumannomyces graminis) | inhibition of growth at up to 200 µg/mL [4]

C/C(=N\OCC1(CO/N=C2\CCCc3c2nc2ccccc2c3C)CC1)c1cc(C)cc(C)n1 [Compound 5.561]
≥ 80%: pest or weed control at 200 ppm [1] | inhibition of growth at up to 200 µg/mL [2] | inhibition of growth at up to 200 µg/mL (Gaeumannomyces graminis) | inhibition of growth at up to 200 µg/mL [4]

C/C(=N\OCC(C)(C)CO/N=C1\CCCc2ccc(C)nc21)c1cccc(C)n1 [E/E-2.002]
≥ 80%: pest or weed control at 200 ppm [1] | inhibition of growth at up to 200 µg/mL [2] | inhibition of growth at up to 200 µg/mL (Gaeumannomyces graminis) | inhibition of growth at up to 200 µg/mL [4] | inhibition of growth at up to 200 µg/mL [3]

C/C(=N\OCC(C)(C)CO/N=C1\CCCc2ccc(C)nc21)c1cc(C)cc(C)n1 [E/E-2.168]
≥ 80%: pest or weed control at 200 ppm [1] | inhibition of growth at up to 200 µg/mL [2] | inhibition of growth at up to 200 µg/mL (Gaeumannomyces graminis) | inhibition of growth at up to 200 µg/mL [4] | inhibition of growth at up to 200 µg/mL [3]

Cc1cccc(/C(=N/OCC(C)(C)CO/N=C2\CCCc3ccc(C)nc32)c2ccccc2)n1 [E/E-2.474]
≥ 80%: pest or weed control at 200 ppm [1] | inhibition of growth at up to 200 µg/mL [2] | inhibition of growth at up to 200 µg/mL (Gaeumannomyces graminis) | inhibition of growth at up to 200 µg/mL [4] | inhibition of growth at up to 200 µg/mL [3]

Cc1ccc2c(n1)/C(=N/OCC(C)(C)CO/N=C/c1ccc3ccccc3n1)CCC2 [E/E-2.507]
≥ 80%: pest or weed control at 200 ppm [1] | inhibition of growth at up to 200 µg/mL [2] | inhibition of growth at up to 200 µg/mL (Gaeumannomyces graminis) | inhibition of growth at up to 200 µg/mL [4] | inhibition of growth at up to 200 µg/mL [3]

C/C(=N\OCC(C)(C)CO/N=C1\CCCc2ccc(C)nc21)c1cccc(Br)n1 [E/E-2.508]
≥ 80%: pest or weed control at 200 ppm [1] | inhibition of growth at up to 200 µg/mL [2] | inhibition of growth at up to 200 µg/mL (Gaeumannomyces graminis) | inhibition of growth at up to 200 µg/mL [4] | inhibition of growth at up to 200 µg/mL [3]

C=C(CO/N=C(\C)c1cccc(C)n1)CO/N=C1\CCCc2ccc(C)nc21 [E/E-3.002]
≥ 80%: pest or weed control at 200 ppm [1] | inhibition of growth at up to 200 µg/mL [2] | inhibition of growth at up to 200 µg/mL (Gaeumannomyces graminis)

C/C(=N\OCC1(CO/N=C2\CCCc3ccc(C)nc32)CC1)c1cc(C)cc(C)n1 [E/E-5.167]
≥ 80%: pest or weed control at 200 ppm [1] | inhibition of growth at up to 200 µg/mL [2] | inhibition of growth at up to 200 µg/mL (Gaeumannomyces graminis) | inhibition of growth at up to 200 µg/mL [3]
